From article PMC7217877, “N-AS-triggered SPMs are direct regulators of microglia in a model of Alzheimer’s disease” (Nature Communications, 2020)
Values joined by “and” are separate entries in the source; they are usually repeats but may differ in a detail not shown here. Identical values can stand only once.

Tests used:
neuron = test: acetyl-CoA level in primary cells (assay kit); format: cell-based, C57BL/6 mice; conditions: Ab 10mM, replicates
Method: To confirm the generation and roles of N-AS in neurons, cells from E18 C57BL/6 mice were prepared as previously described. Cortices were dissected and then dissociated followed by incubation in papain (Worthington) at 37 °C for 15 min. Neurons were plated on poly-L-lysine-coated coverslips with neuronal culture medium, serum-free Neurobasal medium (Gibco) containing 2% B27 supplements (Gibco), 1 mM Glutamax supplement (Gibco), and 100 U ml^−1 streptomycin/ 100 U ml^−1 penicillin (Gibco) at 37 °C in a humidified atmosphere of 5% CO2. […] Primary astrocyte cultures were prepared from C57BL/6 mice as described previously. In brief, after removal of the meninges, postnatal day 7 (P7) mouse brain tissues were minced and incubated in a rocking water bath at 37 °C for 30 min in the presence of 0.25% trypsin-EDTA (Sigma-Aldrich). Enzyme-digested dissociated cells were triturated with astrocyte-specific medium (DMEM/F12 containing 10% FBS and 1% penicillin-streptomycin) and centrifuged at 155×g for 8 min. The pellet was resuspended in astrocyte-specific medium and passed through a 40-μm cell strainer. […] The human microglia treated with Aβ 1–42 and/or zileuton was incubated with N-AS (2.5 μM, 2 h, Sigma-Aldrich, 01912), and were analyzed for the generation and roles of N-AS. […]

astrocyte = test: western blotting for ac-S565 and total COX2 in primary cells; format: cell-based, C57BL/6 mice; conditions: Ab 10mM, replicates
Method: To confirm the generation and roles of N-AS in neurons, cells from E18 C57BL/6 mice were prepared as previously described. Cortices were dissected and then dissociated followed by incubation in papain (Worthington) at 37 °C for 15 min. Neurons were plated on poly-L-lysine-coated coverslips with neuronal culture medium, serum-free Neurobasal medium (Gibco) containing 2% B27 supplements (Gibco), 1 mM Glutamax supplement (Gibco), and 100 U ml^−1 streptomycin/ 100 U ml^−1 penicillin (Gibco) at 37 °C in a humidified atmosphere of 5% CO2. Aβ 1–42 (10 μM, 24 h, Invitrogen, 03112) was exposed to neurons and the cells were analyzed for the generation and roles of N-AS. Primary astrocyte cultures were prepared from C57BL/6 mice as described previously. In brief, after removal of the meninges, postnatal day 7 (P7) mouse brain tissues were minced and incubated in a rocking water bath at 37 °C for 30 min in the presence of 0.25% trypsin-EDTA (Sigma-Aldrich). […] The human microglia treated with Aβ 1–42 and/or zileuton was incubated with N-AS (2.5 μM, 2 h, Sigma-Aldrich, 01912), and were analyzed for the generation and roles of N-AS.
Samples were lysed in RIPA buffer (Cell signaling Technologies), then subjected to SDS-PAGE and transferred to a nitrocellulose membrane. […] We performed densitometric quantification using the ImageJ software (National Institutes of Health). […]

Substance: Ab: Aβ 1–42 (Invitrogen, 03112) used to induce an AD environment in cells
- acetyl-CoA (Fig 3e) (neuron): 0.1397 and 0.4178 and 0.62 and 0.7945 and 0.1176 and 0.7145
- ac-S565 / total COX2, western blotting (Fig 3b) (astrocyte): 0.1055 and 0.07523 and 0.08324 and 0.06718 and 0.09034 and 0.07923
